According to ChEMBL document CHEMBL1201862, “PubChem BioAssay data set” (2004):
Activity calls are given as the source filed them.

tested on: not listed separately; test: non-specific 3'UTR reporter inhibition in Clone20-Shn3RL – cell-based, Renilla luciferase, cherry-picked, counter-screen for Shn3 inhibitor project, dose response (AID 624133); assay type: functional; settings: not given

Structure (SMILES)	AC50
CCCCCn1c(=O)c(C(=O)NC(C)c2ccccc2)c(O)c2ccccc21 (stereo unspecified)	6.26 µM (active)
Cc1ccc(-n2nnnc2-c2cnc(-c3cccnc3)nc2C(F)(F)F)cc1	23 µM (active)
C[C@H](NC(=O)c1[nH]cnc1C(=O)NCc1ccc(CNC(=O)OC(C)(C)C)cc1)c1ccccc1	14.9 µM (active)
COc1ccc(COc2ccccc2C(=O)NCc2ccccc2)cc1F	10.1 µM (active)
Cc1ccc(NC(=O)Cc2nn(C)c(=O)c3ccccc23)cc1F	2.3 µM (active)
C=C1C(=O)C23C(O)C1CCC2C12COC3(O)C(O)C1C(C)(C)CCC2O (stereo unspecified)	8.14 µM (active)
COc1ccccc1CNc1nc(NCc2ccccc2OC)c2sccc2n1	9.79 µM (active)

tested on: not listed separately; test: Luminescence Cell-Based Dose Response HTS to Identify Inhibitors of 5'UTR Stem-Loop Driven Prion Protein mRNA Translation in H4 Neuroglioblastoma Cells. [Related pubchem assays: 1827 (Project Summary), 1813 (Primary HTS)]; assay type: functional; settings: not given

Structure (SMILES)	EC50
O=C(c1cc(-c2ccc3c(c2)OCO3)on1)N1CCCCC1	10.3 µM (active)

tested on: INS1; test: INS-1E survival protection against cytokine death – cell-based, luminescence, retest, dose response (AID 449756); assay type: functional; settings: Rattus norvegicus;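 note: cell death triggered by IL-1 beta plus TNF-alpha plus IFN-gamma mixture; protective hits raise ATP signal compared with cytokine alone wells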

Structure (SMILES)	AC50
CCCCCn1c(=O)c(C(=O)NC(C)c2ccccc2)c(O)c2ccccc21 (stereo unspecified)	5.84 µM (active)
Cc1ccc(NC(=O)Cc2nn(C)c(=O)c3ccccc23)cc1F	3.98 µM (active)

tested on: not listed separately; test: reduction of Shn3 3'UTR-driven luciferase in osteoblasts – cell-based, Clone20 osteoblasts, firefly luciferase, cherry-picked, dose response (AID 624132); assay type: functional; settings: not given;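 note: firefly luciferase luminescence from reporter carrying the Shn3 3'UTR in osteoblasts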

Structure (SMILES)	AC50
CCCCCn1c(=O)c(C(=O)NC(C)c2ccccc2)c(O)c2ccccc21 (stereo unspecified)	11.7 µM (active)
Cc1ccc(-n2nnnc2-c2cnc(-c3cccnc3)nc2C(F)(F)F)cc1	5.89 µM (active)
C[C@H](NC(=O)c1[nH]cnc1C(=O)NCc1ccc(CNC(=O)OC(C)(C)C)cc1)c1ccccc1	11.7 µM (active)
COc1ccc(COc2ccccc2C(=O)NCc2ccccc2)cc1F	4.76 µM (active)
Cc1ccc(NC(=O)Cc2nn(C)c(=O)c3ccccc23)cc1F	0.73 µM (active)
C=C1C(=O)C23C(O)C1CCC2C12COC3(O)C(O)C1C(C)(C)CCC2O (stereo unspecified)	3.3 µM (active)
COc1ccccc1CNc1nc(NCc2ccccc2OC)c2sccc2n1	6.33 µM (active)

molecular target: T1, Rac GTPase-activating protein 1 (Homo sapiens, UniProt Q9H0H5); test: blockers of MgcRacGAP-driven Rac1 GTP hydrolysis – biochemical, ADP Hunter fluorescence, primary and confirmatory, confirmation (AID 624330); assay type: functional; settings: not given
T1 sequence (Q9H0H5 whole entry): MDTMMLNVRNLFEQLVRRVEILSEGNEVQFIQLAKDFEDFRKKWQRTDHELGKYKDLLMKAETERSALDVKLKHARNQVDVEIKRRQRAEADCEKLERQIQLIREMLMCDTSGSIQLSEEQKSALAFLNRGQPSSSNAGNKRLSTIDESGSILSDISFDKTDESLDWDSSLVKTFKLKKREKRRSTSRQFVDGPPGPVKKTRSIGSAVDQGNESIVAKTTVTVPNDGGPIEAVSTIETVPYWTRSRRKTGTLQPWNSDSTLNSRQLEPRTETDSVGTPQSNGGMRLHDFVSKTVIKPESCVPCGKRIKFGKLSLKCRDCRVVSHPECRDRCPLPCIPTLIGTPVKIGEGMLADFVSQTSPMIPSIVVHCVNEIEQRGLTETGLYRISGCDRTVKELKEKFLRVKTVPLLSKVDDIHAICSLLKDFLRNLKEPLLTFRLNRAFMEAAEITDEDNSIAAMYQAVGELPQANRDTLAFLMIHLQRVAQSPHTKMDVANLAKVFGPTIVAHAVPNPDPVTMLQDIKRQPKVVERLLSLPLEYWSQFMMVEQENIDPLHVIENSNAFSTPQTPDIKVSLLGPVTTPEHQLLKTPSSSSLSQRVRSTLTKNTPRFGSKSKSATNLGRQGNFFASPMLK

Structure (SMILES)	IC50
Nc1ccc(Nc2ccccc2)c(Cl)c1	17.3 µM (active)
O=C(CN1CCN(c2ccc(O)cc2)CC1)NC(=O)NCc1ccco1	52.6 µM (active)
CCN(CC)S(=O)(=O)c1cccc(NC(=O)CNC2CCCCCC2)c1	185 µM (active)
Cc1cc(-c2cc(C)c(N)c(C)c2)cc(C)c1N	10.8 µM (active)
Clc1ccccc1CNCc1ccc2c(c1)OCO2	257 µM (active)
O=C(NCCNCC(O)COc1ccc(O)cc1)N1CCOCC1 (stereo unspecified)	118 µM (active)
Nc1ccc(N=Nc2ccc(N)cc2)cc1	22 µM (active)
O=c1c2ccccc2nc(/C=C/c2ccc(O)cc2)n1-c1ccccc1O	62.5 µM (active)

tested on: not listed separately; test: alpha-synuclein stem-loop luciferase translation blockers – H4 neuroglioma cells, luminescence, confirmation (AID 1988); assay type: functional, cell-based; settings: not given

Structure (SMILES)	EC50
O=C(c1cc(-c2ccc3c(c2)OCO3)on1)N1CCCCC1	7.22 µM (inconclusive)

tested on: not listed separately; test: loss of viability in HepG2 cells – cell-based, CellTiter-Glo, cherry-picked, cytotoxicity control for Shn3 inhibitor project, dose response (AID 624134); assay type: functional; settings: not given

Structure (SMILES)	AC50
CCCCCn1c(=O)c(C(=O)NC(C)c2ccccc2)c(O)c2ccccc21 (stereo unspecified)	> 70 µM (inactive)
Cc1ccc(-n2nnnc2-c2cnc(-c3cccnc3)nc2C(F)(F)F)cc1	57.4 µM (active)
C[C@H](NC(=O)c1[nH]cnc1C(=O)NCc1ccc(CNC(=O)OC(C)(C)C)cc1)c1ccccc1	> 70 µM (inactive)
COc1ccc(COc2ccccc2C(=O)NCc2ccccc2)cc1F	52.4 µM (active)
Cc1ccc(NC(=O)Cc2nn(C)c(=O)c3ccccc23)cc1F	3.46 µM (active)
COc1ccccc1CNc1nc(NCc2ccccc2OC)c2sccc2n1	22.1 µM (active)

molecular target: Large T antigen (Simian virus 40, UniProt P03070); test: not given; assay type: functional, Betapolyomavirus macacae; settings: not given;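 note: Confirmatory-stage PubChem screen for compounds that inhibit SV40 T antigen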
Sequence (P03070 whole entry): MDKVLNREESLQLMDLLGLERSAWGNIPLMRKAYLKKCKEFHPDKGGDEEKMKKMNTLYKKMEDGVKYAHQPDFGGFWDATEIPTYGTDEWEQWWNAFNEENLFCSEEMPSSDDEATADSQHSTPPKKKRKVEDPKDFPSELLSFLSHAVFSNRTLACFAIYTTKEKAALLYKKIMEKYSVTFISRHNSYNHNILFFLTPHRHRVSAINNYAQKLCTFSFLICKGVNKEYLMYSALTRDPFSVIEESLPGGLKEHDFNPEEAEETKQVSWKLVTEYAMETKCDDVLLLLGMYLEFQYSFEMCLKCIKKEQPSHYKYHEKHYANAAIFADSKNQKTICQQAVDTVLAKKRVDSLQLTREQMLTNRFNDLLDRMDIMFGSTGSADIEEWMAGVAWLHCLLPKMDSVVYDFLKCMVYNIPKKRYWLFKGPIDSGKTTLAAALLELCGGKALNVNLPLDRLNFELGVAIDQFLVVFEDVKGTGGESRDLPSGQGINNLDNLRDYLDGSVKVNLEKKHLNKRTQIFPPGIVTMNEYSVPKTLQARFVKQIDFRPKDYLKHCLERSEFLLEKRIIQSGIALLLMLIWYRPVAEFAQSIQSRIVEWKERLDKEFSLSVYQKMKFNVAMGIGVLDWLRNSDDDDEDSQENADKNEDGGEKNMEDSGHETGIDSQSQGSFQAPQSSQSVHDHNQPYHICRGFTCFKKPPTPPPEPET

Structure (SMILES)	IC50
CN1CN(C)c2cccc3cccc1c23	73.9 µM (active)
CN(C)/C=C(\C#N)C(=O)Nc1ccc(O)cc1F	17.6 µM (active)
CCS(=O)(=O)C1=NN2C(=N)/C(=C\c3ccc(OC(=O)c4ccco4)c(Br)c3)C(=O)N=C2S1	> 100 µM (active)
O=c1[nH]c(=O)c2nnc(N/N=C\c3ccc(O)cc3)nc2[nH]1	16.8 µM (active)
